System: 460 barcoded cancer cell lines
Test: PRISM pooled barcoded cancer cell line growth screen, 10-point dose-response, 5 days, AUC
Assay type: cell-based
Parameters: scale not given here
From the text: Several small molecule inhibitors of distinct protein domains of EP300/CBP are available, though the majority target the histone acetyltransferase domain (HAT) or bromodomain (BRD)[5],[10],[21],[22]. […] We used these tools to investigate the relative contribution of the EP300/CBP BRD or HAT domain to tumor cell growth (Fig. 1a). To do so, we performed 10-point, dose-response growth assays using mixed pools of 460 barcoded cancer cell lines, over five days of treatment in vitro[33],[34]. Growth was measured using an area-under-the-curve (AUC) approach (Supplementary Table 1, Supplementary Fig. 1a). […] Given potential differences in compound penetration and solubility, and to compare the relative cell line and tumor-specific effects of these two compounds in assays performed non-simultaneously, we performed a median normalization of each dataset (Supplementary Table 2).

CO[C@H]1CC[C@H](n2c([C@@H]3CCCC(=O)N3c3ccc(F)c(F)c3)nc3cc(-c4c(C)noc4C)ccc32)CC1 [CCS1477]
AUC (MG63, Osteosarcoma): 1
AUC (MHHNB11, Neuroblastoma): 0.7003
AUC (MIAPACA2, Pancreatic Cancer): 0.9396
AUC (MKN1, Gastric Cancer): 0.9606
AUC (MKN7, Gastric Cancer): 0.7767
AUC (MKN45, Gastric Cancer): 0.856
AUC (MOLM13, AML): 0.3814
AUC (MOLM16, AML): 0.9868
AUC (MOLT3, T-acute leukemia): 0.9924
AUC (MOLT16, T-acute leukemia): 0.8465
AUC (MON, Rhabdoid): 0.6598
AUC (NB1, Neuroblastoma): 0.5737
AUC (NB4, AML): 1
AUC (NCIH23, Lung Cancer): 0.9771
AUC (NCIH28, Lung Cancer): 0.9928
AUC (NCIH82, Lung Cancer): 0.997
AUC (NCIH196, Lung Cancer): 0.842
AUC (NCIH211, Lung Cancer): 0.8687
AUC (NCIH226, Lung Cancer): 0.9874
AUC (NCIH292, Lung Cancer): 0.9319
AUC (NCIH322, Lung Cancer): 0.9929
AUC (NCIH358, Lung Cancer): 1
AUC (NCIH441, Lung Cancer): 0.7826
AUC (NCIH460, Lung Cancer): 0.9935
AUC (NCIH520, Lung Cancer): 0.9951
AUC (NCIH524, Lung Cancer): 1
AUC (NCIH596, Lung Cancer): 0.9011
AUC (NCIH647, Lung Cancer): 0.8544
AUC (NCIH650, Lung Cancer): 0.6419
AUC (NCIH661, Lung Cancer): 1
AUC (NCIH747, Colon/Colorectal Cancer): 0.9981
AUC (NCIH841, Lung Cancer): 0.9721
AUC (NCIH1048, Lung Cancer): 1
AUC (NCIH1299, Lung Cancer): 0.9947
AUC (NCIH1341, Lung Cancer): 0.9136
AUC (NCIH1373, Lung Cancer): 0.9741
AUC (NCIH1437, Lung Cancer): 0.9932
AUC (NCIH1568, Lung Cancer): 0.9412
AUC (NCIH1573, Lung Cancer): 1
AUC (NCIH1581, Lung Cancer): 0.9081
AUC (NCIH1648, Lung Cancer): 0.7802
AUC (NCIH1792, Lung Cancer): 0.8352
AUC (NCIH1793, Lung Cancer): 0.9609
AUC (NCIH1838, Lung Cancer): 0.9639
AUC (NCIH1930, Lung Cancer): 0.9338
AUC (NCIH1944, Lung Cancer): 0.9624
AUC (NCIH1975, Lung Cancer): 0.9927
AUC (NCIH2004RT, Rhabdoid): 1
AUC (NCIH2052, Lung Cancer): 0.9941
AUC (NCIH2122, Lung Cancer): 0.9334
AUC (NCIH2170, Lung Cancer): 0.8755
AUC (NCIH2172, Lung Cancer): 0.8463
AUC (NCIH2196, Lung Cancer): 0.8725
AUC (NCIH2228, Lung Cancer): 1
AUC (NCIH2347, Lung Cancer): 0.9989
AUC (NCIH2444, Lung Cancer): 1
AUC (NCO2, CML): 0.9122
AUC (NIHOVCAR3, Ovarian Cancer): 0.9967
AUC (NUDHL1, Lymphoma): 0.5218
AUC (NUGC3, Gastric Cancer): 0.905
AUC (OAW42, Ovarian Cancer): 0.9968
AUC (OC314, Ovarian Cancer): 0.7634
AUC (OC316, Ovarian Cancer): 0.664
AUC (OCIAML2, AML): 0.5324
AUC (OCIAML3, AML): 0.8075
AUC (OCILY19, Lymphoma): 0.7248
AUC (OCILY132, T-cell lymphoma): 0.9273
AUC (OCIM1, AML): 0.8977
AUC (OE19, Esophageal Cancer): 0.9508
AUC (OE21, Esophageal Cancer): 0.9943
AUC (ONCODG1, Ovarian Cancer): 0.9442
AUC (ONS76, Medulloblastoma): 0.6602
AUC (OSRC2, Kidney Cancer): 1
AUC (OV56, Ovarian Cancer): 1
AUC (OVCAR8, Ovarian Cancer): 0.8858
AUC (OVISE, Ovarian Cancer): 0.9803
AUC (OVK18, Ovarian Cancer): 0.5969
AUC (OVKATE, Ovarian Cancer): 0.8791
AUC (OVTOKO, Ovarian Cancer): 0.9328
AUC (PANC0203, Pancreatic Cancer): 0.9609
AUC (PANC0327, Pancreatic Cancer): 1
AUC (PANC0403, Pancreatic Cancer): 0.9938
AUC (PANC0504, Pancreatic Cancer): 0.8732
AUC (PANC0813, Pancreatic Cancer): 1
AUC (PATU8902, Pancreatic Cancer): 0.9744
AUC (PC3, Prostate Cancer): 1
AUC (PECAPJ15, Head and Neck Cancer): 0.9295
AUC (PF382, T-acute leukemia): 0.7571
AUC (PK1, Pancreatic Cancer): 0.9937
AUC (PK59, Pancreatic Cancer): 1
AUC (PSN1, Pancreatic Cancer): 0.7783
AUC (RCM1, Colon/Colorectal Cancer): 0.9586
AUC (RD, Rhabdomyosarcoma): 0.8954
AUC (RDES, Ewing Sarcoma): 0.5629
AUC (RERFLCAI, Lung Cancer): 0.937
AUC (RERFLCKJ, Lung Cancer): 0.8827
AUC (RH4, Rhabdomyosarcoma): 0.8163
AUC (RH28, Rhabdomyosarcoma): 0.8877
AUC (RH36, Rhabdomyosarcoma): 0.9558
AUC (RHJT, Rhabdomyosarcoma): 0.8764
AUC (RI1, B-cell Lymphoma): 0.7034
AUC (RL952, Endometrial/Uterine Cancer): 0.9936
AUC (RL, B-cell Lymphoma): 0.8905
AUC (RPMI8402, T-acute leukemia): 0.8153
AUC (RT4, Bladder Cancer): 0.9721
AUC (RVH421, Melanoma): 0.975
AUC (S117, Thyroid Sarcoma): 0.8697
AUC (SAOS2, Osteosarcoma): 0.6766
AUC (SCABER, Bladder Cancer): 0.9263
AUC (SCC9, Head and Neck Cancer): 0.7896
AUC (SCC25, Head and Neck Cancer): 0.9849
AUC (SCLC21H, Lung Cancer): 0.8733
AUC (SEM, B-cell Leukemia): 0.851
AUC (SF539, Glioma): 0.9912
AUC (SH4, Melanoma): 0.9252
AUC (SH10TC, Gastric Cancer): 0.7637
AUC (SHP77, Lung Cancer): 0.791
AUC (SIMA, Neuroblastoma): 0.8003
AUC (SJSA1, Osteosarcoma): 0.881
AUC (SKES1, Ewing Sarcoma): 0.7015
AUC (SKHEP1, Liver Cancer): 0.9726
AUC (SKM1, AML): 0.6213
AUC (SKMEL30, Melanoma): 0.7984
AUC (SKMES1, Lung Cancer): 0.9581
AUC (SKMM2, Myeloma): 0.9554
AUC (SKNAS, Neuroblastoma): 0.9789
AUC (SKNBE2, Neuroblastoma): 0.6208
AUC (SKNDZ, Neuroblastoma): 0.8143
AUC (SKNEP1, Ewing Sarcoma): 0.8025
AUC (SKNMC, Ewing Sarcoma): 0.8546
AUC (SKNO1, AML): 0.6432
AUC (SKNSH, Neuroblastoma): 0.8336
AUC (SKOV3, Ovarian Cancer): 0.9975
AUC (SKUT1, Leiomyosarcoma): 0.8326
AUC (SNU1, Gastric Cancer): 0.9131
AUC (SNU46, Head and Neck Cancer): 0.9224
AUC (SNU61, Colon/Colorectal Cancer): 0.9346
AUC (SNU81, Colon/Colorectal Cancer): 1
AUC (SNU182, Liver Cancer): 0.7735
AUC (SNU201, Glioblastoma): 0.712
AUC (SNU213, Pancreatic Cancer): 0.9853
AUC (SNU216, Gastric Cancer): 0.9769
AUC (SNU245, Bile Duct Cancer): 0.8366
AUC (SNU407, Colon/Colorectal Cancer): 0.9923
AUC (SNU423, Liver Cancer): 0.9162
AUC (SNU449, Liver Cancer): 0.9509
AUC (SNU466, Glioblastoma): 0.9993
AUC (SNU478, Bile Duct Cancer): 0.6392
AUC (SNU601, Gastric Cancer): 0.8941
AUC (SNU668, Gastric Cancer): 0.9591
AUC (SNU685, Endometrial/Uterine Cancer): 0.9601
AUC (SNU719, Gastric Cancer): 0.914
AUC (SNU869, Bile Duct Cancer): 0.9994
AUC (SNU878, Liver Cancer): 0.7965
AUC (SNU886, Liver Cancer): 1
AUC (SNU1041, Head and Neck Cancer): 0.8828
AUC (SNU1066, Head and Neck Cancer): 1
AUC (SNU1076, Head and Neck Cancer): 0.8929
AUC (SNU1077, Endometrial/Uterine Cancer): 0.9948
AUC (SNU1079, Bile Duct Cancer): 0.994
AUC (SNU1105, Glioblastoma): 0.9872
AUC (SNU1196, Bile Duct Cancer): 0.8873
AUC (SNU1214, Head and Neck Cancer): 0.7307
AUC (SNUC2A, Colon/Colorectal Cancer): 0.8028
AUC (SNUC4, Colon/Colorectal Cancer): 0.894
AUC (SQ1, Lung Cancer): 0.8902
AUC (SR786, Lymphoma): 0.7905
AUC (STM9101, Rhabdoid): 0.9061
AUC (SUDHL8, Lymphoma): 0.8983
AUC (SW48, Colon/Colorectal Cancer): 1
AUC (SW579, Thyroid Cancer): 0.9957
AUC (SW620, Colon/Colorectal Cancer): 1
AUC (SW780, Bladder Cancer): 0.8694
AUC (SW837, Colon/Colorectal Cancer): 0.8996
AUC (SW900, Lung Cancer): 0.9538
AUC (SW948, Colon/Colorectal Cancer): 0.8065
AUC (SW1088, Glioma): 0.9904
AUC (SW1116, Colon/Colorectal Cancer): 0.8985
AUC (SW1463, Colon/Colorectal Cancer): 0.8864
AUC (SW1710, Bladder Cancer): 1
AUC (T3M10, Lung Cancer): 0.9279
AUC (T24, Bladder Cancer): 0.9961
AUC (T47D, Breast Cancer): 0.8791
AUC (TALL1, T-acute leukemia): 0.9864
AUC (TC71, Ewing Sarcoma): 0.7599
AUC (TC106, Ewing Sarcoma): 1
AUC (TC205, Ewing Sarcoma): 0.7558
AUC (TCCPAN2, Pancreatic Cancer): 0.9414
AUC (TCCSUP, Bladder Cancer): 0.982
AUC (TE1, Esophageal Cancer): 1
AUC (TE4, Esophageal Cancer): 1
AUC (TE6, Esophageal Cancer): 0.9744
AUC (TE9, Esophageal Cancer): 0.9981
AUC (TE10, Esophageal Cancer): 0.7792
AUC (TE11, Esophageal Cancer): 0.9258
AUC (TE15, Esophageal Cancer): 0.8586
AUC (TE617T, Rhabdomyosarcoma): 0.9947
AUC (TF1, AML): 0.6668
AUC (TM87, Rhabdoid): 0.9581
AUC (TOLEDO, Lymphoma): 0.9697
AUC (TOV21G, Ovarian Cancer): 0.9924
AUC (TT2609C02, Thyroid Cancer): 0.8798
AUC (TT, Thyroid Cancer): 0.7695
AUC (TTC442, Rhabdomyosarcoma): 0.8425
AUC (TTC549, Rhabdoid): 0.9131
AUC (TTC642, Rhabdoid): 0.7844
AUC (TTC1240, Rhabdoid): 0.4497
AUC (TYKNU, Ovarian Cancer): 0.8502
AUC (U2OS, Osteosarcoma): 0.8623
AUC (U266B1, Myeloma): 0.9866
AUC (U937, AML): 0.7957
AUC (UACC62, Melanoma): 0.8964
AUC (UACC257, Melanoma): 0.9638
AUC (UBLC1, Bladder Cancer): 0.695
AUC (UMUC1, Bladder Cancer): 0.8319
AUC (UW228, Medulloblastoma): 0.9704
AUC (VMCUB1, Bladder Cancer): 0.7437
AUC (VMRCRCW, Kidney Cancer): 0.9159
AUC (VMRCRCZ, Kidney Cancer): 0.8277
AUC (WM88, Melanoma): 0.9177
AUC (WM793, Melanoma): 0.9978
AUC (WM983B, Melanoma): 0.8412
AUC (YAPC, Pancreatic Cancer): 1
AUC (YD10B, Head and Neck Cancer): 0.8679
AUC (YD15, Head and Neck Cancer): 0.7679
AUC (YD38, Head and Neck Cancer): 0.6898
AUC (YH13, Glioblastoma): 0.9673
